US3931314A, “Benzophenone derivatives and process for their production” (Cassella Farbwerke Mainkur Aktiengesellschaft, priority 1972, dated 1976)

What was measured:
[1] = system: central nervous system; experiment: climbing test on albino mice, sedative action on the central nervous system; assay type: in vivo; settings: Mus musculus, po, read-out: Sedative action % (percentage of animals which no longer take up the climbing work); for responders at 8 mg/kg: dose 8 mg/kg p.o.; for responders at 10 mg/kg: dose 10 mg/kg p.o.
Method: The pharmacological investigation of the sedative action on the central nervous system was carried out using the climbing tests on albino mice described by P. K. KNEIP: Arch. int. pharmacodyn 126, 238 (1960) and R. DOMENJOZ and W. THEOBALD: Arch. int. pharmacodyn 120, 450 (1959).
In the table which follows, the results of the pharmacological investigations carried out are summarised. In the last table under the heading "Sedative action %" there is given the percentage of the experimental animals which no longer take up the normally readily assumed climbing work.

[2] = LD50 (mouse), acute toxicity; settings: in vivo

Row | SMILES | responders at 8 mg/kg [1] [%] | LD50 ([2]; ip) [mg/kg] | other results
1 | COc1ccc(N(C)C(=O)CNC(C)CC#N)c(C(=O)c2ccccc2)c1 (stereo not shown) [2-(5-Cyano-N,4-dimethyl-3-aza-pentanamido)-5-methoxy-benzophenone] | 60 | 250 | 
2 | CN(CCCC#N)CC(=O)Nc1ccc(Cl)cc1C(=O)c1ccccc1 [2-(6-Cyano-3-methyl-3-aza-hexanamido)-5-chlor-benzophenone] | 60 |  | 
3 | CCOC(=O)CCCNCC(=O)N(C)c1ccc([N+](=O)[O-])cc1C(=O)c1ccccc1 [2-(6-ethoxycarbonyl-N-methyl-3-aza-hexanamido)-5-nitro-benzophenone] | 60 | 650 | 
4 | CN(CCC#N)CC(=O)N(C)c1ccc([N+](=O)[O-])cc1C(=O)c1ccccc1 [2-(5-Cyano-N,3-dimethyl-3-aza-pentanamido)-5-nitro-benzophenone] |  |  | responders at 10 mg/kg [1]: 50%; LD50 ([2]; po): > 1000 mg/kg
5 | CN(CCC(=O)O)CC(=O)Nc1ccc(Cl)cc1C(=O)c1ccccc1 [2-(5-Carboxy-3-methyl-3-aza-pentanamido)-5-chlor-benzophenone] | 90 | 450 | 
6 | COc1ccc(N(C)C(=O)CNCCC#N)c(C(=O)c2ccccc2)c1 [2-(5-Cyano-N-methyl-3-aza-pentanamido)-5-methoxy-benzophenone] | 50 |  | 
7 | CCCCN(CCC#N)CC(=O)N(C)c1ccc([N+](=O)[O-])cc1C(=O)c1ccccc1 [2-(5-Cyano-N-methyl-3-n-butyl-3-aza-pentanamido)-5-nitro-benzophenone] | 50 | 680 | 
8 | CCOC(=O)CCNCC(=O)N(C)c1ccc(C)cc1C(=O)c1ccccc1 [2-(5-ethoxycarbonyl-N-methyl-3-aza-pentanamido)-5-methyl-benzophenone] | 50 |  | 
9 | CCOC(=O)CCNCC(=O)N(C)c1ccc(SC)cc1C(=O)c1ccccc1 [2-(5-ethoxycarbonyl-N-methyl-3-aza-pentanamido)-5-methylmerkapto-benzophenone] | 60 |  | 
10 | CN(C(=O)CNCC#N)c1ccc(Cl)cc1C(=O)c1ccccc1 [2-(4-Cyano-N-methyl-3-aza-butanamido)-5-chlor-benzophenone] | 60 | 170 | 
11 | Cc1ccc(N(C)C(=O)CNCCC#N)c(C(=O)c2ccccc2)c1 [2-(5-Cyano-N-methyl-3-aza-pentanamido)-5-methyl-benzophenone] | 50 |  | 
12 | Cc1ccc(N(C)C(=O)CNC(C)CC#N)c(C(=O)c2ccccc2)c1 (stereo not shown) | 70 | 300 | 
13 | CC(CC#N)NCC(=O)Nc1ccccc1C(=O)c1ccccc1 (stereo not shown) [2-(5-Cyano-4-methyl-3-aza-pentanamido)-benzophenone] |  |  | responders at 10 mg/kg [1]: 50%; LD50 ([2]; po): > 1000 mg/kg
14 | COC(=O)CNCC(=O)N(C)c1ccc(Cl)cc1C(=O)c1ccccc1 [2-(4-Methoxycarbonyl-N-methyl-3-aza-butanamido)-5-chlor-benzophenone] |  |  | responders at 10 mg/kg [1]: 50%; LD50 ([2]; po): 950 mg/kg
15 | CC(C#N)CNCC(=O)Nc1ccc(Cl)cc1C(=O)c1ccccc1 (stereo not shown) [2-(5-Cyano-3-aza-hexanamid0)-5-chlor-benzophenone] | 50 | 600 | 
16 | CC(CC#N)NCC(=O)N(C)c1ccccc1C(=O)c1ccccc1 (stereo not shown) [2-(5-Cyano-N,4-dimethyl-3-aza-pentanamido)-benzophenone] | 70 | 320 | 
17 | C=CCN(CCC#N)CC(=O)Nc1ccc(Cl)cc1C(=O)c1ccccc1Cl [2-(5-Cyano-3-allyl-3-aza-pentanamido)-2'-5-dichlor-benzophenone] | 60 | 630 | 
18 | CCOC(=O)CCNCC(=O)N(C)c1ccc(C(F)(F)F)cc1C(=O)c1ccccc1 [2-(5-ethoxycarbonyl-N-methyl-3-aza-pentanamido)-5-trifluormethyl-benzophenone] | 60 | 400 | 
19 | CCCC(C)(COC(N)=O)COC(N)=O [Meprobamate, reference compound] |  | 620 | responders at 70 mg/kg ([1]; dose 70 mg/kg p.o., comparative preparation): 50%
20 | CCOC(=O)CCNCC(=O)Nc1ccc(Cl)cc1C(=O)c1ccccc1Cl [2-(5-ethoxycarbonyl-3-aza-pentanamido)-2',5-dichlor-benzophenone] | 70 |  | 
21 | CC(CC#N)NCC(=O)N(C)c1ccc(Cl)cc1C(=O)c1ccccc1 (stereo not shown) [2-(5-Cyano-N,4-dimethyl-3-aza-pentanamido)-5-chlor-benzophenone] | 50 | 315 | 
22 | CCCCN(CCC#N)CC(=O)N(C)c1ccc(Cl)cc1C(=O)c1ccccc1 [2-(5-Cyano-N-methyl-3-n-butyl-3-aza-pentanamido)-5-chlor-benzophenone] | 80 | 360 | 
23 | CCOC(=O)CCCNCC(=O)Nc1ccc([N+](=O)[O-])cc1C(=O)c1ccccc1 [2-(6-ethoxycarbonyl-3-aza-hexanamido)-5-nitro-benzophenone] | 50 |  | 
24 | CC(C#N)CN(C)CC(=O)N(C)c1ccc([N+](=O)[O-])cc1C(=O)c1ccccc1 (stereo not shown) [2-(5-Cyano-N,3-dimethyl-3-aza-hexanamido)-5-nitro-benzophenone] |  | 480 | responders at 10 mg/kg [1]: 60%; LD50 ([2]; po): 1100 mg/kg
25 | CN(CCC#N)CC(=O)N(C)c1ccc(Cl)cc1C(=O)c1ccccc1 [2-(5-Cyano-N,3-dimethyl-3-aza-pentanamido)-5-chlor-benzophenone] | 50 | 240 | 
26 | CC(CC#N)N(C)CC(=O)N(C)c1ccc(Cl)cc1C(=O)c1ccccc1 (stereo not shown) [2-(5-Cyano-N,3,4-trimethyl-3-aza-pentanamido)-5-chlor-benzophenone] |  | 320 | responders at 9 mg/kg ([1]; dose 9 mg/kg p.o.): 50%
